Measurements as given in publication PMC6302903, “Protein and Chemical Determinants of BL-1249 Action and Selectivity for K2P Channels” (ACS Chemical Neuroscience, 2018).

Assays:
Type in all cases: cell-based
[1] = target: T1, TREK-1/AAK M4-C (Mus musculus, UniProt O88454+P97438); assay: TEVC of chimera TREK-1/AAK M4-C; details: Xenopus oocytes
T1 construct: Y272 (TREK-1/AAK M4-C); expressed in transfected cells; host or cells: Xenopus laevis oocytes, mRNA injected; chimera built by Gibson assembly
T1 sequence (P97438+O88454 with tags, fused parts or gaps P97438:V273L/P97438:V280F/P97438:A287S/P97438:S290T/P97438:M291T/P97438:D294N): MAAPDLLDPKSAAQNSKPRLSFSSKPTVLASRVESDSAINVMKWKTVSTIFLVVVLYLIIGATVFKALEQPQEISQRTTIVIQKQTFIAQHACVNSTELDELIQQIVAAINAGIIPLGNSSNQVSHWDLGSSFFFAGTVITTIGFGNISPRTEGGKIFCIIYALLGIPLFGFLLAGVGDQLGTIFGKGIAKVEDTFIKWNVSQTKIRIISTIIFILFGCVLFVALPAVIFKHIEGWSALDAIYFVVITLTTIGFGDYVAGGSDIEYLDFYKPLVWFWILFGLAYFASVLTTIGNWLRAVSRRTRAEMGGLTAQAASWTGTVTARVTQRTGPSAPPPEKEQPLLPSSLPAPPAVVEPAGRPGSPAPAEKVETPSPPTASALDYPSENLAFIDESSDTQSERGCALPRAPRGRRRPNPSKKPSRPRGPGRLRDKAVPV

[2] = target: T2, TREK-1/AAK M3-C (Mus musculus, UniProt O88454+P97438); assay: TEVC of chimera TREK-1/AAK M3-C; details: Xenopus oocytes
T2 construct: Trp199 (TREK-1/AAK M3-C); expressed in transfected cells; host or cells: Xenopus laevis oocytes, mRNA injected; chimera built by Gibson assembly
T2 sequence (P97438+O88454 with tags, fused parts or gaps P97438:N200H/P97438:S202P/P97438:Q203P/P97438:T204G/P97438:K205L/P97438:I206V/P97438:I208S/P97438:I209L/P97438:T211A/P97438:I212V/P97438:I213L/P97438:I215L/P97438:F217I/P97438:V220L/P97438:A224L/P97438:L225T/P97438:A227T/P97438:V228F/P97438:I229V/P97438:K231S/P97438:H232Y/P97438:I233M/P97438:G235S/P97438:A238K/P97438:D240E/P97438:V246I/P97438:I247V/P97438:I252V/P97438:A259P/P97438:G261D/P97438:S262G/P97438:D263T/P97438:I264G/P97438:E265Q/P97438:Y266N/P97438:L267S/P97438:D268P/P97438:F269A/P97438:K271Q/P97438:V273L/P97438:V280F/P97438:A287S/P97438:S290T/P97438:M291T/P97438:D294N): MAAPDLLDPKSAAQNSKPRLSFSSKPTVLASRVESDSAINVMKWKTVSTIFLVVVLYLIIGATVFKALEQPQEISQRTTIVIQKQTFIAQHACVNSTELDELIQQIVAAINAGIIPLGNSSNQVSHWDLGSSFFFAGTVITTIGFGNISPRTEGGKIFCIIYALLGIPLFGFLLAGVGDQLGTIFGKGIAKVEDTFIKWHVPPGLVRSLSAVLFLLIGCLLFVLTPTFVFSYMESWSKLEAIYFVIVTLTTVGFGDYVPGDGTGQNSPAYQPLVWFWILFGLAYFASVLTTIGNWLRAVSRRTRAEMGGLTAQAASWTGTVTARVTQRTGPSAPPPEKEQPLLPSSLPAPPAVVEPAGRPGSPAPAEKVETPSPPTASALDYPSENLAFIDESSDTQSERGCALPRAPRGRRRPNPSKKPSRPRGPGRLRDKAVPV

[3] = target: T3, K2P13.1(THIK-1) (Mus musculus, UniProt Q8R1P5); assay: TEVC of K2P13.1(THIK-1) in Xenopus oocytes; details: concentrations up to the solubility limit (∼80 μM)
T3 construct: expressed in transfected cells; host or cells: Xenopus laevis oocytes (mRNA injection, pGEMHE/pMO)
Protocol: BL-1249 activates K2P2.1(TREK-1)[18],[40] and K2P10.1(TREK-2),[7] but its effects on other K2P channels have not been characterized. […] In order to test if the original 10 μM assay had missed BL-1249 effects in other K2P channels, we tested concentrations of BL-1249 up to the solubility limit (∼80 μM) against the other K2P subfamily representatives. […]
(§1) Xenopus laevis oocytes were harvested in accordance with UCSF IACUC protocol AN129690 and digested in calcium-free ND-96 (96 mM NaCl, 2 mM KCl, 3.8 mM MgCl2) immediately following harvest, as previously described.[6],[10] […] Defolliculated stage V–VI oocytes were injected with 0.2–6.0 ng of mRNA in 50 nL, and currents were recorded 24–48 h after injection. mRNA was synthesized from plasmid DNA using mMessage mMachine Kit (T7 promoter, Ambion, Life Technologies) and purified using RNEasy Kit (Qiagen). […] Once stabilized basal currents were recorded, compounds were perfused at various concentrations in standard ND96 and currents were allowed to increase to stabilization before recording final current. Fold activation upon compound application is expressed as I/I0 (0 mV), derived from the current at 0 mV in the presence of compound divided by the basal current at 0 mV in standard ND96 without compound. Data were analyzed and plotted using Graphpad Prism Version 5 (GraphPad Software, San Diego California USA, www.graphpad.com). […]

[4] = target: T4, K2P2.1(TREK-1)Δ308 (Mus musculus, UniProt P97438); assay: TEVC of C-terminal truncation at residue 308; details: Xenopus oocytes, saturation not reached, fit with upper boundary of 15 (I/I0)
T4 construct: and at residue 308, K2P2.1(TREK-1)Δ308; expressed in transfected cells; host or cells: Xenopus laevis oocytes, mRNA injected
Description: Constructs for murine K2P channels, including K2P2.1(TREK-1) (Gene ID 16526), K2P10.1(TREK-2) (Gene ID 72258), K2P4.1(TRAAK) (Gene ID 16528), K2P5.1(TASK-2) (Gene ID 16529), K2P3.1(TASK-1) (Gene ID 16527), K2P9.1(TASK-3) (Gene ID 223604), and K2P18.1(TRESK) (Gene ID 332396) in pGEMHE/pMO, were used for Xenopus oocyte experiments as previously described.[10],[26] Murine K2P2.1(TREK-1) (Gene ID 16526) was expressed in HEK-293 cells using a pIRES-EGFP construct as previously described.[26] Murine K2P13.1(THIK-1) (Gene ID 217826) and K2P1.1(TWIK-1) (Gene ID 16525) were cloned into pGEMHE/pMO for use in Xenopus oocytes. […]
as §1, with “current.” for “current. Fold activation upon compound application is expressed as I/I0 (0 mV), derived from the current at 0 mV in the presence of compound divided by the basal current at 0 mV in standard ND96 without compound. Data were analyzed and plotted using Graphpad Prism Version 5 (GraphPad Software, San Diego California USA, www.graphpad.com).”

T3 sequence (Q8R1P5 whole entry): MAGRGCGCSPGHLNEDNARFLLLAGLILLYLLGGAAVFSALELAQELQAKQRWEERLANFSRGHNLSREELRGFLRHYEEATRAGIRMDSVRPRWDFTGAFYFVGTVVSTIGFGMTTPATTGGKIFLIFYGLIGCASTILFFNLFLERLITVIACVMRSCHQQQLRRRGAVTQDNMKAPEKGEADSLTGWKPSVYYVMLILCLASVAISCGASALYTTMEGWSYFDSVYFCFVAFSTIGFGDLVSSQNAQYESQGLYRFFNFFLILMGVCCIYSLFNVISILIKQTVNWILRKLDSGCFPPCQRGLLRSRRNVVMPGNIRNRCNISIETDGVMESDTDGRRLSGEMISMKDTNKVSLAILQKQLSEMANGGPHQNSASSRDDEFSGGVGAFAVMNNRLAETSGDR
T4 sequence (P97438 1-308 isoform P97438-2): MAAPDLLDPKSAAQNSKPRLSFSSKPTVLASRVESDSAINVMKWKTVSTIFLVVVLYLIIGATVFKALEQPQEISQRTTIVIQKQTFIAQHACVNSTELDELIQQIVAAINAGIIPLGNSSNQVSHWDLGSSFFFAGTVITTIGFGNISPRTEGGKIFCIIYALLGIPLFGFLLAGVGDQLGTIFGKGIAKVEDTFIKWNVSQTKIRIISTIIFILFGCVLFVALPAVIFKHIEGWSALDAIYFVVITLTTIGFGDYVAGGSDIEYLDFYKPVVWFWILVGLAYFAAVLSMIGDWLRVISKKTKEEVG

Row | SMILES | EC50 [1] [µM] | EC50 [2] [µM] | activation of K2P13.1(THIK-1) [3] | EC50 [4] [µM]
1 | CS(=O)(=O)Nc1ccc(C(=O)NCc2ccc(Cl)cc2Cl)cc1 [ML335] | 2 ± 0.6 | > 100 |  | 
2 | c1ccc(-c2nnn[nH]2)c(Nc2cccc3c2CCCC3)c1 [BL-1249, (5,6,7,8-tetrahydro-naphthalen-1-yl)-[2-(1H-tetrazol-5-yl)-phenyl]-amine] | 19 ± 3 | 28 ± 2 | failed to find evidence for activation | 35 ± 8
